According to patent US20030134779A1, “Method and composition for treatment and/or prevention of antibiotic-resistant microorganism infections” (priority 2002, published 2003):
Read-outs that look alike come from different tables or passages of the source.

Assays:
[1] = tested on: S. aureus strains; assay: Disk diffusion susceptibility test and cefinase test; format: cell-based, Staphylococcus aureus; details: β-lactamase producing strains
Description: For quality control, disk diffusion susceptibility tests, as recommended by the National Committee for Clinical Laboratory Standard, were performed on all strains using standard disk of various antibiotics. After 18 h of incubation at 37° C., the diameter of the zone of complete inhibition of bacterial growth around each disk was measured. Isolates were categorized as sensitive or resistant for a given antibiotic using the recommended interpretative guidelines of the manufacturer.

[2] = tested on: S. aureus ATCC 25923; assay: MIC of penicillin G alone or with bovine LF, macrodilution; format: cell-based; details: Staphylococcus aureus, strain β-lactamase type −, read-out: MICs of penicillin G
From the text: (§1) Staphylococcus aureus strains ATCC 25923 and 6538 and Escherichia coli ATCC 25922 were obtained from the American Type Culture Collection. Eight bovine mastitis clinical isolates of S. aureus (SHY97-3906, -3923, -4085 -4242, -4320 and -4343, RFT-1 and RFT-5) and one isolate of E. coli SHY97-3923-2 and one isolate of Kiebsiella pneumoniae SHY99-723-1 were kindly provided by the Laboratoire Provincial de Pathologie Animale of St-Hyacinthe and of Rock-Forest (Quebec, Canada), respectively. Nine β-lactam antibiotics resistant S. aureus strains (PC-1, NCTC 9789, 2076, 22260, ST79/741, 3804, RN9, FAR8, and FAR10) were obtained from Vanderbilt University School of Medicine (Nashville, Tenn., USA). All the culture media were from Difco Laboratories (Detroit, Mich.). Bacteria from frozen stock at −80° C. were streaked onto tryptic soy agar plates suplemented with 5% of defibrinated sheep blood (Quelab, Montreal, QC, Canada) or Brain Heart infusion agar plates. Plates were then incubated for 16 to 24 h at 37° C. For most experiments, the strains were subcultured onto Mueller Hinton agar plates (MHA) or broth (MHB) for an additional 16-20 h. Aqueous solutions of the tested products were added by filtration through a sterile filter assembly (pore size 0.2 μm, Fisher, Ottawa, Ontario).
(§2) The MICs were determined by both macrodilution (1 ml/tube) and microdilution (100 μl/well) in sterile 96 well microtiter plates (International Nunc, Napierville, Ill.) techniques in three separate experiments according to the National Committee for Clinical Laboratory Standards (1992 and 1999) in three separate experiments. Serial 2-fold dilutions in MHB of LF, LFC, antibiotic or combination of LF or LFC with antibiotic were inoculated with an overnight culture at a final inoculum of 10^6 cfu/ml in MHB. Effect of LF combination with antibiotic on MICs were determined by adding 0.5 mg or 1 mg/ml of LF to each antibiotic dilution. The MIC was defined as the lowest concentration of drug (highest dilution) that caused a complete inhibition of bacterial growth after an incubation of 18 h. Effect of LF or LFC combination with antibiotic on MIC was also determined by checkerboard method using 96 well microtiter plates. Each antibiotic dilution (50 μl) was serially added to the wells in vertical rows starting from the top (lower dilution) to the bottom. Lactoferrin or LFC (50 μl) were added to 50 μl of each antibiotic dilution and serially diluted starting at the left (lower dilution) to the right. After inoculation, the final concentration of antibiotic from top to bottom were 32 to 8, 2 to 0.5, 0.5 to 0.125 μg/ml for penicillin, cefazolin and neomycin, respectively. From left to right, the concentration of LF or LFC were 25 to 0.0244 mg/ml or 256 to 0.5 μg/ml respectively in a final volume of 100 μl/well. The microplate's were incubated at 37° C. for 24 h. Bacterial growth was measured optically at 540 nm using Spectra Max 250 Microplate Spectrophotometer System of Molecular Device (Fisher Scientific, Ottawa, Canada). Tubes were incubated at 37° C. for 18 h and bacterial growth was measured by visual examination and optically at 540 nm using a spectrophotometer (Philips PU 8800; Pye Unican Ltd, Cambridge, UK). The fractional inhibitory concentration (FIC) was calculated as described by Eliopoulos and Moellering (1991).

[3] = tested on: S. aureus FAR 10; assay: as above; format: cell-based; details: Staphylococcus aureus, strain β-lactamase +D, read-out: MICs of penicillin G
From the text: as §1, §2

[4] = tested on: S. aureus PC-1; assay: as above; format: cell-based; details: Staphylococcus aureus, strain β-lactamase +A constitutive
From the text: as §1, §2

[5] = tested on: S. aureus SHY97-3923; assay: as above; format: cell-based; details: Staphylococcus aureus, strain β-lactamase type −, read-out: MICs of penicillin G
From the text: as §1, §2

[6] = tested on: S. aureus SHY97-4320; assay: as above; format: cell-based; details: Staphylococcus aureus, strain β-lactamase + uncharacterised, read-out: MICs of penicillin G
From the text: as §1, §2

[7] = tested on: S. aureus FAR 8; assay: as above; format: cell-based; details: Staphylococcus aureus, strain β-lactamase +D, read-out: MICs of penicillin G
From the text: as §1, §2

[8] = tested on: S. aureus 3804^f; assay: as above; format: cell-based, Staphylococcus aureus; details: strain β-lactamase +C; for MIC: Staphylococcus aureus
From the text: as §1, §2

[9] = tested on: S. aureus RN 9; assay: as above; format: cell-based, Staphylococcus aureus; details: strain β-lactamase +C; for MIC: Staphylococcus aureus
From the text: as §1, §2

[10] = tested on: S. aureus 22260; assay: as above; format: cell-based, Staphylococcus aureus; details: strain β-lactamase +B, read-out: MICs of penicillin G
From the text: as §1, §2

[11] = tested on: S. aureus 2076; assay: as above; format: cell-based, Staphylococcus aureus; details: strain β-lactamase +A, read-out: MICs of penicillin G
From the text: as §1, §2

With `CC1(C)S[C@@H]2[C@H](NC(=O)Cc3ccccc3)C(=O)N2[C@H]1C(=O)O` [penicillin G, Penicillin G] the “susceptibility by standard disk diffusion and cefinase test” value [1] was “resistance”, the MIC ([2]; ATCC25923, +0.5 mg/ml LF) was 0.031 µg/mL and the MIC ([2]; ATCC25923, +1 mg/ml LF) was 0.015 µg/mL. It also gave an MIC ([2]; ATCC25923, Alone) of 0.031 µg/mL, an MIC ([3]; FAR10, +0.5 mg/ml LF) of 1 µg/mL and an MIC ([3]; FAR10, +1 mg/ml LF) of 1 µg/mL. For the same compound, the MIC ([3]; FAR10, Alone) was 2 µg/mL, the MIC ([4]; PC1, read-out: MICs of penicillin G, +0.5 mg/ml LF) was 128 µg/mL and the MIC ([4]; PC1, read-out: MICs of penicillin G, +1 mg/ml LF) was 128 µg/mL. For the same compound, the MIC ([4]; PC1, read-out: MICs of penicillin G, Alone) was > 128 µg/mL, the MIC ([5]; SHY973923, +0.5 mg/ml LF) was 7 ng/mL and the MIC ([5]; SHY973923, +1 mg/ml LF) was 7 ng/mL. It also gave an MIC ([5]; SHY973923, Alone) of 15 ng/mL, an MIC ([6]; SHY974320, +0.5 mg/ml LF) of 32 µg/mL and an MIC ([6]; SHY974320, +1 mg/ml LF) of 32 µg/mL. It also gave an MIC ([6]; SHY974320, Alone) of 64 µg/mL, an MIC ([7]; FAR8, +0.5 mg/ml LF) of 8 µg/mL and an MIC ([7]; FAR8, +1 mg/ml LF) of 8 µg/mL. For the same compound, the MIC ([7]; FAR8, Alone) was 16 µg/mL, the “MICs of penicillin G” value ([8]; +1 mg/ml LF) was 64 µg/mL and the MIC ([8]; read-out: MICs of penicillin G, Alone) was 128 µg/mL. The MIC ([8]; +0.5 mg/ml LF, read-out: MICs of penicillin G) was 64 µg/mL, the “MICs of penicillin G” value ([9]; +1 mg/ml LF) was 64 µg/mL and the MIC ([9]; RN9, read-out: MICs of penicillin G, Alone) was 128 µg/mL. For the same compound, the MIC ([9]; RN9, +0.5 mg/ml LF, read-out: MICs of penicillin G) was 64 µg/mL, the MIC ([10]; Staphylococcus aureus, 22260, +0.5 mg/ml LF) was 16 µg/mL and the MIC ([10]; Staphylococcus aureus, 22260, +1 mg/ml LF) was 16 µg/mL. For the same compound, the MIC ([10]; Staphylococcus aureus, 22260, Alone) was 32 µg/mL, the MIC ([11]; Staphylococcus aureus, 2076, +0.5 mg/ml LF) was 0.25 µg/mL and the MIC ([11]; Staphylococcus aureus, 2076, +1 mg/ml LF) was 0.25 µg/mL. The MIC ([11]; Staphylococcus aureus, 2076, Alone) was 0.5 µg/mL.
